Measurements reported in patent publication US11427543B2, “Compounds for targeting cancer stem cells” (The General Hospital Corporation, priority 2016, dated 2022).
Entries after “also recorded” stand apart in the source; their conditions may differ.

What was measured:
PD-L1 = PD-L1 protein level by Western blot in cells under compressive (solid) stress; assay type: cell-based; conditions: breast cancer (4T1) and glioblastoma cells (CT2A, GL261), solid stress 0.80 kPa, 1 μM, 24 hours
Protocol: Cells were treated with 1 μM C108 for 24 hours and untreated cells were used as a control. β-actin was used as a loading control.
To generate compressive stress, a device was used that included a piston of adjustable weights applying a constant force to cells growing on a transwell membrane with 0.8 μm-pores. This membrane permitted nutrient and oxygen diffusion but prevented cell transmigration. The connection between compressive stress and G3BP2 and PD-L1 protein levels was measured in 4T1 cells. When 80% cell confluence was reached on the membrane, the cells were compressed for 24 h using the in vitro compression device; a similar membrane containing 80% cell confluence in an uncompressed condition was used as the control. After 24-h compression, proteins were isolated from the control and compressed cells cultured in full-growth medium according to the standard protocol (see e.g., Roose et al. Microvasc Res, 2003, 66(3):204-12). […] To confirm this finding, Western blot analysis was performed with different breast cancer cells (MDA-MB-231 cells) with different of compressive stress, as shown in FIG. 15B).
It was then hypothesized that compounds that bind to G3BP2 protein can repress PD-L1 in stressed cells. Breast cancer cells and glioblastoma cells in vitro were analyzed with 2-hydroxy-N′-[1-(2-hydroxyphenyl)ethylidene]benzohydrazide (i.e., C108) for 24 hours.

ZEB1 = ZEB1 protein level by Western blot after compound treatment; assay type: cell-based; conditions: MDA-MB-453 and BT-474 breast cancer cell lines, 3 μM, 24 hours
Protocol: Immunoprecipitation was performed using Protein A Sepharose beads (GE Healthcare Lifesciences). Beads were washed, conjugated to the immunoprecipitating antibody for 2 hours, and immunoprecipitated overnight at 4° C. Western blots were performed using a standard protocol; using 4-10% gradient gel and Tris-glycine transfer buffer.
A direct molecular link between epithelial-mesenchymal transition (EMT) and CSC plasticity in breast cancer has recently been shown; EMT effectors such as ZEB1 can co-induce both EMT and stem-like properties (see e.g., Chaffer et al., Cell, 2013, 154, 61-74). To understand if the G3BP2-mediated CSC state intersects with the EMT program, we the protein level of ZEB1 in G3BP2 knockdown and overexpression breast cancer cell lines was analyzed.

G3BP2 = target: T1, G3BP2 (Homo sapiens, UniProt Q9UN86); test: Pull-down with compound-conjugated TURBOBEADS nanoparticles, Western blot with G3BP2 antibodies; assay type: binding; conditions: nanoparticles bound to compound vs nanoparticles alone (control)
T1 construct: protein lysates from three breast cancer cell lines incubated overnight with; endogenous in cells
T1 sequence (Q9UN86 1-482): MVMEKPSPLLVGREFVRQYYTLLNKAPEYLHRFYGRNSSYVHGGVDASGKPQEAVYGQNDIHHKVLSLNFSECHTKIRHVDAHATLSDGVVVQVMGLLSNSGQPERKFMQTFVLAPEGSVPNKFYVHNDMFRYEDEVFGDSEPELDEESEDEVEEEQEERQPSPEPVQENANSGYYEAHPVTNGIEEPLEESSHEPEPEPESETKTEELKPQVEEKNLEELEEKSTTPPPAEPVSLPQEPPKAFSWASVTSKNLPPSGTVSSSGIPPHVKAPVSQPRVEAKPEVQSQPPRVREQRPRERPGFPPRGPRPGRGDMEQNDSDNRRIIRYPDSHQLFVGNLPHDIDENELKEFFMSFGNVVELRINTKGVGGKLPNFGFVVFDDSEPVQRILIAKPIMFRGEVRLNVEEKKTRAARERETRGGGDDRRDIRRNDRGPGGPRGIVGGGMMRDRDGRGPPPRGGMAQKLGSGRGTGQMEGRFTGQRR
Protocol: Western blot analysis was performed with G3BP2 antibodies. Small molecule 2-hydroxy-N′-[1-(2-hydroxyphenyl)ethylidene]benzohydrazide was conjugated to TURBOBEADS® carboxy nanoparticles (TURBOBEADS®). TURBOBEADS® alone were used as a negative control.
To determine which […] would bind to a test compound, TURBOBEADS® carboxy nanoparticles (TURBOBEADS®) were conjugated to 2-hydroxy-N′-[1-(2-hydroxyphenyl)ethylidene]benzohydrazide for 20 mi as per manufacturer's protocol, followed by overnight immunoprecipitation at 4° C. Proteins from metastatic cancer cells were pulled-down with using the test compound-nanoparticle conjugates and using unconjugated nanoparticles as a control.
shRNA-expressing lentivirus was obtained for each pull-down protein and used to infect modified MDA-MB-231 cells. MTT assays were performed with shRNA stable cell lines and treated with non-lethal doses of paclitaxel. Only shRNA […] made cells sensitive to treatment with paclitaxel. To confirm that the test compound (2-hydroxy-N′-[1-(2-hydroxyphenyl)ethylidene]benzohydrazide) bound to G3B3P2, an immunoprecipitation with magnetic nanoparticles bound to 2-hydroxy-N′-[1-(2-hydroxyphenyl)ethylidene]benzohydrazide and nanoparticles alone (control) was carried out.

IL-6 = IL-6 concentration by ELISA after compound treatment; assay type: cell-based; conditions: 4T1 and E0771 breast cancer cell lines, 1 μM, 24 hours
Protocol: After treatment, IL-6 concentration was decreased by about 5 to 7 fold.
4T1 and E0771 cells were grow in 96 well plate and were treated with compound for 24 hours (concentration of compound was 1 μM). Commercial ELISA kit (R&D systems) was used for measuring of IL-6 concentration. […] After treatment, IL-6 concentration was decreased by about 5 to 7 fold.

- Binding of G3BP2 to the compound (Western blotting after immunoprecipitation with magnetic nanoparticles) (G3BP2): binds
Compound: CC(=NNC(=O)c1ccccc1O)c1ccccc1O [C108, 2-hydroxy-N′-[1-(2-hydroxyphenyl)ethylidene]benzohydrazide]
- PD-L1 expression level (PD-L1): repressed; also recorded: diminished
- ZEB1 inhibition (ZEB1): 5-7 fold
- Decrease in IL-6 concentration (IL-6): 5 to 7 fold
